Measured values as given in publication PMC9555560, “Fast relaxing red and near-IR switchable azobenzenes with chalcogen and halogen substituents: periodic trends, tuneable thermal half-lives and chalcogen bonding” (Chemical Science, 2022).

How the values were obtained:
Type in all cases: physicochemical
[1] = Half-life of the Z → E thermal isomerisation (UV-vis absorbance followed over time after irradiation); conditions: for τ 1/2: 298 K
Experimental: The E → Z photo-isomerisation and half-life for the Z → E thermal isomerisation was evaluated for all derivatives (Fig. 7 and Table 1, see ESI ^† for original data). To our surprise, the half-lives for (Z)-X2,m-Y2 derivatives were in the order of hours to days for X = F and Cl: the effect of the meta group was not as drastic as anticipated. We typically observed a ∼4 fold decrease in half-life by substituting H with OMe, and a further 3-fold drop from OMe to NMe2 for X = F, Cl and SEt. The nature of the ortho-substituent appeared to be the main influence on τ1/2 (F > Cl ≫ SEt). However, these predictable trends observed for the meta-substitution allow for precise tuning of thermal half-lives. The photo-stationary states (PSSs) of these derivatives ranged from 48–77% Z isomer (Table 1).
All UV-vis spectra were determined in DMSO solution. […]
Lambert plot) to determine the molar extinction coefficient ε. For each slow relaxing compound, the E isomer sample at 40 µM was irradiated with the appropriate wavelength of light to generate the photo-stationary state, and another spectrum was run. This spectrum was normalised to units of ε and overlaid with the dark (100% E isomer) spectrum. […]
Photo-irradiation of liquid samples was carried out using Thorlabs high-power mounted LEDs (models […]
M530L4 (green, 530 nm); in-house custom built set-ups using optical components supplied by Thorlabs, as described in reference 2
Equation y = y0 + A1*exp(-(x-x0)/t1
Figure S327. Lifetime plot of (Z)-Br4-NHBoc based on following UV-Vis absorbance over time after irradiation with 625 nm light (rt, DMSO). Data consistent with NMR half-life data.
Figure S328. Reversible of switching of I4-NHBoc over time after irradiation with 6 60 nm light (rt, DMSO). Dots : raw data, Line: 1st order Exponential Fit […]

[2] = UV-vis spectra of the E isomers (n → π* absorption maximum); conditions: E isomer, DMSO
Text: The UV-vis spectra of the (E)-X4 derivatives and (E)-X2,m-Y2 are shown in Fig. 3 (analogous spectra for the Z isomers, and deconvoluted spectra are available in the ESI ^†). […] The n → π* transition maximum, λmax, typically followed the order meta-H > –NMe2 > –OMe and ortho-S > Cl > F. It is clear from these experiments that the four ortho X substituents in the X4 derivatives are essential for achieving the deeply red-shifted tails which allows for red/near-IR triggered photo-isomerisation.
All UV-vis spectra were determined in DMSO solution. Extinction coefficients were determined by recording a UV-vis spectra for the E isomer at 10, 20, 30, 40 µM in DMSO respectively. The absorbance at the maximum of the π - π* transition of the E‐isomers was plotted against concentration (Beer-Lambert plot) to determine the molar extinction coefficient ε. For each slow relaxing compound, the E isomer sample at 40 µM was irradiated with the appropriate wavelength of light to generate the photo-stationary state, and another spectrum was run. This spectrum was normalised to units of ε and overlaid with the dark (100% E isomer) spectrum.

[3] = GSH stability study (decay of absorbance in phosphate buffer with 10 mM glutathione); conditions: for t1 of 1st order exponential decay fit (decomposition with GSH): 100 mM phosphate buffer containing 10 mM GSH degassed with N2, 298 K; for τ 1/2 (10 mM GSH): 100 mM phosphate buffer pH 7 containing 10 mM GSH, degassed with N2, 298 K, para substituent CH2NH2·TFA
Experimental: Finally, the stability of the X4 derivatives were assessed by exposing them to the highest expected intracellular concentration of glutathione (GSH, 10 mM).[28] This was achieved by treating the Boc-protected amino-methyl derivatives X4-NHBoc (X = F, Cl, Br, I, OMe, SMe and SeMe) with TFA to remove the protecting groups. The resulting ammonium-appended AB derivative was dissolved in N2-degassed 100 mM phosphate buffer at pH 7 containing 10 mM GSH, and the changes in absorbance were monitored over an extended period. […] Strong σ-donating substituents are also proposed to aid diazo lone pair protonation, and subsequent GSH attack.[25]
A 10 mM reduced glutathione (GSH) solution was prepared in degassed 100 mM sodium phosphate buffer (at least 15 minutes of N 2 bubbled through the buffer solution prior to addition to GSH). The absorption of the solution was measured periodically at 25 °C, then fitted to a 1 st Order exponential […]
Equation y = y0 + A1*exp(-(x-x0)
Figure S366. Decomposition of F4-CH2NH2•TFA Conditions: 100 mM phosphate buffer containing 10 mM GSH degassed with N2. T = 298 K. […]

[4] = Z → E thermal isomerisation, DMSO

N#Cc1cc(I)c(/N=N/c2c(I)cc(C#N)cc2I)c(I)c1 [I4-CN]
τ 1/2 [1, 4]: 0.00556 h
λ max of n → π* transition [2]: 520.8 nm

CC(C)(C)OC(=O)NCc1cc(Cl)c(N=Nc2c(Cl)cc(CNC(=O)OC(C)(C)C)cc2Cl)c(Cl)c1 [Cl4-NHBoc]
τ 1/2 [1, 4]: 160 h
λ max of n → π* transition [2]: 462.6 nm

CC(C)(C)OC(=O)NCc1cc(Cl)c(/N=N/c2c(Cl)cc(CNC(=O)OC(C)(C)C)cc2Cl)c(Cl)c1 [Cl]
t1 of 1st order exponential decay fit (decomposition with GSH) [3]: 14241.72745 ± 14.23 s
τ 1/2 (10 mM GSH) [3]: 2.7 h

COc1cc(N=Nc2cc(OC)c(CNC(=O)OC(C)(C)C)cc2F)c(F)cc1CNC(=O)OC(C)(C)C [F2,m-OMe2]
τ 1/2 [1, 4]: 77 h
λ max of n → π* transition [2]: 387.1 nm

CC(C)(C)OC(=O)NCc1ccc(/N=N/c2ccc(CNC(=O)OC(C)(C)C)cc2N2CCCC2)c(N2CCCC2)c1 [(N(CH2)4)2,m-H]
λ max of n → π* transition [2]: 530.2 nm

C[Se]c1cc(CNC(=O)OC(C)(C)C)cc([Se]C)c1/N=N/c1c([Se]C)cc(CNC(=O)OC(C)(C)C)cc1[Se]C [(SeMe)4-NHBoc]
τ 1/2 [1, 4]: 0.00944 h
λ max of n → π* transition [2]: 534.3 nm

CCSc1cc(CNC(=O)OC(C)(C)C)c(OC)cc1/N=N/c1cc(OC)c(CNC(=O)OC(C)(C)C)cc1SCC [(SEt)2,m-OMe2]
τ 1/2 [1, 4]: 9 m
λ max of n → π* transition [2]: 464.1 nm

CCOC(=O)c1cc([Se]C)c(/N=N/c2c([Se]C)cc(C(=O)OCC)cc2[Se]C)c([Se]C)c1 [(SeMe)4-ester]
τ 1/2 [1, 4]: 0.000694 h
λ max of n → π* transition [2]: 588.8 nm

CC(C)(C)OC(=O)NCc1cc(Br)c(N=Nc2c(Br)cc(CNC(=O)OC(C)(C)C)cc2Br)c(Br)c1 [Br4-NHBoc]
τ 1/2 [1, 4]: 12 h
t1 of exponential fit (lifetime plot of Z isomer) ([1]; after irradiation with 625 nm light, rt, DMSO): 1011 ± 6.62 min
λ max of n → π* transition [2]: 465.9 nm

CC(C)(C)OC(=O)NCc1ccc(N=Nc2ccc(CNC(=O)OC(C)(C)C)cc2Cl)c(Cl)c1 [Cl2,m-H2]
τ 1/2 [1, 4]: 34 h
λ max of n → π* transition [2]: 471.0 nm

CCSc1cc(CNC(=O)OC(C)(C)C)ccc1/N=N/c1ccc(CNC(=O)OC(C)(C)C)cc1SCC [(SEt)2,m-H2]
τ 1/2 [1, 4]: 44 m
λ max of n → π* transition [2]: 431.3 nm

CC(C)(C)OC(=O)NCc1cc(Br)c(N=Nc2c(Br)cc(CNC(=O)OC(C)(C)C)cc2Br)c(Br)c1 [Br]
t1 of 1st order exponential decay fit (decomposition with GSH) [3]: 25249.56343 ± 57.34 s
τ 1/2 (10 mM GSH) [3]: 5 h

CN(C)c1cc(N=Nc2cc(N(C)C)c(CNC(=O)OC(C)(C)C)cc2Cl)c(Cl)cc1CNC(=O)OC(C)(C)C [Cl2,m-(NMe2)2]
τ 1/2 [1, 4]: 4 h
λ max of n → π* transition [2]: 432.1 nm

C[Se]c1cccc([Se]C)c1/N=N/c1c([Se]C)cccc1[Se]C [(SeMe)4-H]
τ 1/2 [1, 4]: 0.0222 h
λ max of n → π* transition [2]: 533.9 nm

C[Te]c1cccc([Te]C)c1/N=N/c1c([Te]C)cccc1[Te]C [(TeMe)4-H]
λ max of n → π* transition [2]: 518.5 nm

CC(C)(C)OC(=O)NCc1ccc(N=Nc2ccc(CNC(=O)OC(C)(C)C)cc2F)c(F)c1 [F2,m-H2]
τ 1/2 [1, 4]: 75 h
λ max of n → π* transition [2]: 452.5 nm

CC(C)Sc1cc(CNC(=O)OC(C)(C)C)cc(SC(C)C)c1/N=N/c1c(SC(C)C)cc(CNC(=O)OC(C)(C)C)cc1SC(C)C [(S^iPr)4-NHBoc]
τ 1/2 [1, 4]: 3 m
λ max of n → π* transition [2]: 500.4 nm

CC(C)(C)OC(=O)NCc1cc(I)c(N=Nc2c(I)cc(CNC(=O)OC(C)(C)C)cc2I)c(I)c1 [I4-NHBoc]
τ 1/2 [1, 4]: 5 m
τ1/2 (Z) ([1]; Z → E thermal isomerisation, printed in Fig. 1 / Fig. 8): 5 min
λ max of n → π* transition [2]: 514.3 nm

COc1cc(CNC(=O)OC(C)(C)C)cc(OC)c1/N=N/c1c(OC)cc(CNC(=O)OC(C)(C)C)cc1OC [(OMe)4-NHBoc]
τ 1/2 [1, 4]: 197 h
λ max of n → π* transition [2]: 459.8 nm

CC(C)(C)OC(=O)NCc1cc(F)c(/N=N/c2c(F)cc(CNC(=O)OC(C)(C)C)cc2F)c(F)c1 [F]
t1 of 1st order exponential decay fit (decomposition with GSH) [3]: 3748 ± 3.403 s
τ 1/2 (10 mM GSH) [3]: 0.7 h

C[Te]c1cccc(F)c1/N=N/c1c(F)cccc1[Te]C [Te2F2-H]
λ max of n → π* transition [2]: 543 nm

CC(=O)OCc1cc(I)c(/N=N/c2c(I)cc(COC(C)=O)cc2I)c(I)c1 [I4-OAc]
τ 1/2 [1, 4]: 2 m
λ max of n → π* transition [2]: 501.3 nm

O=C1c2ccccc2C(=O)N1Cc1cc(I)c(/N=N/c2c(I)cc(CN3C(=O)c4ccccc4C3=O)cc2I)c(I)c1 [I4-NPhth]
τ 1/2 [1, 4]: 3 m
λ max of n → π* transition [2]: 511.8 nm

CCOC(=O)c1cc(I)c(N=Nc2c(I)cc(C(=O)OCC)cc2I)c(I)c1 [I4-ester]
τ 1/2 [1, 4]: 0.0128 h
λ max of n → π* transition [2]: 519.6 nm

CCSc1cc(CNC(=O)OC(C)(C)C)cc(SCC)c1/N=N/c1c(SCC)cc(CNC(=O)OC(C)(C)C)cc1SCC [(SEt)4-NHBoc]
τ 1/2 [1, 4]: 3 m
λ max of n → π* transition [2]: 514.5 nm

COc1cc(N=Nc2cc(OC)c(CNC(=O)OC(C)(C)C)cc2Cl)c(Cl)cc1CNC(=O)OC(C)(C)C [Cl2,m-OMe2]
τ 1/2 [1, 4]: 18 h
λ max of n → π* transition [2]: 475.0 nm

CCOC(=O)c1cc(SCC)c(/N=N/c2c(SCC)cc(C(=O)OCC)cc2SCC)c(SCC)c1 [(SEt)4-ester]
τ 1/2 [1, 4]: 0.0144 h
λ max of n → π* transition [2]: 590.0 nm

CC(C)(C)OC(=O)NCc1cc(I)c(/N=N/c2c(I)cc(CNC(=O)OC(C)(C)C)cc2I)c(I)c1 [I]
t1 of 1st order exponential decay fit (decomposition with GSH) [3]: 3971 ± 9.47 s
τ 1/2 (10 mM GSH) [3]: 0.7 h

CSc1cccc(SC)c1/N=N/c1c(SC)cccc1SC [(SMe)4-H]
τ 1/2 [1, 4]: 5 m
λ max of n → π* transition [2]: 514.2 nm

[N-]=[N+]=NCc1cc(I)c(/N=N/c2c(I)cc(CN=[N+]=[N-])cc2I)c(I)c1 [I4-N3]
τ 1/2 [1, 4]: 3 m
λ max of n → π* transition [2]: 514.4 nm

OCc1cc(I)c(/N=N/c2c(I)cc(CO)cc2I)c(I)c1 [I4-OH]
λ max of n → π* transition [2]: 500.3 nm

CN(C)c1cc(N=Nc2cc(N(C)C)c(CNC(=O)OC(C)(C)C)cc2F)c(F)cc1CNC(=O)OC(C)(C)C [F2,m-(NMe2)2]
τ 1/2 [1, 4]: 16 h
λ max of n → π* transition [2]: 405.5 nm

CCOP(=O)(OCC)c1ccccc1/N=N/c1ccccc1P(=O)(OCC)OCC [(PO(OEt)2)2,m-H]
λ max of n → π* transition [2]: 458.2 nm

CC(C)(C)OC(=O)NCc1cc(F)c(N=Nc2c(F)cc(CNC(=O)OC(C)(C)C)cc2F)c(F)c1 [F4-NHBoc]
τ 1/2 [1, 4]: 1.25y
λ max of n → π* transition [2]: 454 nm

CCSc1cc(CNC(=O)OC(C)(C)C)c(N(C)C)cc1/N=N/c1cc(N(C)C)c(CNC(=O)OC(C)(C)C)cc1SCC [(SEt)2,m-(NMe2)2]
τ 1/2 [1, 4]: 0.0389 h
λ max of n → π* transition [2]: 543.0 nm
